Results published in BindingDB's records for doi:10.1016/s0960-894x(97)10184-6 (Cinc, 1999).

Experiments:
[1] = Tested for inhibition of substrate hydrolysis in the presence of porcine kidney esterase at a concentration of 9 uM
[2] = Tested for inhibition of substrate hydrolysis in the presence of porcine kidney esterase at a concentration of 1 uM
[3] = Tested for inhibition of substrate hydrolysis in the presence of porcine kidney esterase at a concentration of 45 nM

SMILES	Ki [1] [nM]	Ki [2] [nM]	Ki [3] [nM]
COC(=O)CCC(=O)N[C@@H](C)C(=O)N[C@@H](C)C(=O)N1CCC[C@H]1C(=O)N/C(=C(/OC(C)=O)C(=O)OC)C(C)C [(E)-2-Acetoxy-3-[((S)-1-{(S)-2-[(S)-2-(3-methoxycarbonyl-propionylamino)-propionylamino]-propionyl}-pyrrolidine-2-carbonyl)-amino]-4-methyl-pent-2-enoic acid methyl ester]	130	130	–
COC(=O)/C(OC(C)=O)=C(\NC(=O)[C@@H]1CCCN1C(=O)[C@H](C)NC(=O)[C@H](C)NC(=O)c1ccc(C(=O)NS(=O)(=O)c2ccc(Cl)cc2)cc1)C(C)C [(E)-2-Acetoxy-3-{[(S)-1-((S)-2-{(S)-2-[4-(4-chloro-benzenesulfonylaminocarbonyl)-benzoylamino]-propionylamino}-propionyl)-pyrrolidine-2-carbonyl]-amino}-4-methyl-pent-2-enoic acid methyl ester]	–	–	13
